Data reported in patent publication US20250075218A1, “HIF1A OR GLUT1 INHIBITION IN INFLAMMATORY SKIN DISEASES” (New York University, priority 2023, published 2025).

Assays:
Type in all cases: in vivo, human
PsO patient = assay: Clinical metadata of pre- and post-secukinumab-treated patient
Excerpt: (§1) IL-17A blocking therapies are lauded for their clinical success, often achieving complete remission of skin plaques within 6 months of treatment (Ghoreschi et al., 2021). This remarkable clinical response provided a unique opportunity to examine if HIF1α levels normalize with successful therapy. Therefore, pre- and post-treatment biopsies were obtained from a secukinumab (anti-IL-17A) treated PsO patient who achieved complete clinical remission (Psoriatic Area and Severity Score (PASI) 100, or 100% psoriasis plaque clearance) (FIG. 3A and Table 1). Pre- and 12-weeks post-therapy biopsies from both lesional and non-lesional skin were taken <0.5 cm apart from the same patient, ensuring that post-treatment biopsies were taken from resolved lesions and not adjacent uninvolved skin (FIG. 8A).
Human skin samples. Following anesthetization with 2% lidocaine injection, 4 mm full-thickness punch biopsies were performed on lesional skin, and matched non-lesional skin located contralaterally. In healthy volunteers, skin biopsy samples were obtained from the trunk and/or extremities. Post-therapy biopsies from secukinumab-treated patients were taken 5 to 10 mm away from the original biopsy site within the original lesion area, discerned by hyperpigmentation, and at contralateral non-lesional skin.

[1] = tested on: HIF1A, IL17RA, and IL17RC; assay: Spatial transcriptomics of pre- and post-secukinumab lesional and non-lesional skin; settings: following therapy, 12 weeks; one patient
Excerpt: as §1, with “Pre- and 12-weeks post-therapy biopsies from both lesional and non-lesional skin were taken <0.5 cm apart from the same patient, ensuring that post-treatment biopsies were taken from resolved lesions and not adjacent uninvolved skin (FIG. 8A).” left out
When compared to contralateral non-lesional skin, the PsO lesion was enriched for HIF1A, IL17RA, and IL17RC (FIGS. 3B and 8H). […] As a complementary analysis, HIF1α protein expression was measured in a cohort of 10 patients treated with etanercept (anti-TNFα) that achieved response (PASI 75 or greater) at 12 weeks (Table 2) (Stinco et al., 2019). […]
Spatial transcriptomics. […] Spot selection and image alignment: Following probe cleavage, fluorescent images were taken on a Hamamatsu NanoZoomer whole slide fluorescence scanner. […] The Space Ranger mkfastq function was used for sample demultiplexing and converting spatial barcodes and reads into FASTQ format. […]

[2] = tested on: HIF1α-inhibitor downregulated gene signature; assay: Transcriptional program response analyses to clinical trial data (GSVA, NCT01537432); settings: baseline and 1, 4, 12 weeks of secukinumab or placebo
Excerpt: The dramatic transcriptional response following BAY 87-2243 treatment prompted investigation of the role of HIF1α-modulated genes on PsO disease pathogenesis. Toward this end, HIF1α-modulated genes were projected onto a longitudinal analysis of the transcriptional response from 33 patients following either placebo (9 patients) or anti-IL-17A blocking (secukinumab) therapy (24 patients) (NCT01537432) (Krueger et al., 2019).
Transcriptional program response analyses to clinical trial data. Scoring methods: To evaluate if gene signatures derived from differential gene expression in human biopsy cultures or topical HIF1α inhibitor treatment in IMQ-treated murine model would be affected by anti-IL17 treatment, the genes down regulated by HIF1α inhibitor (HIF1α-signature) were projected into the longitudinal gene expression profiles of 31 psoriasis patients enrolled in a randomized clinical trial testing the efficacy of Secukinumab 300 mgs (n=22) versus Placebo (n=9) (Krueger et al., 2019). The overall expression/activity of the signatures was estimated using gene set variation analysis (GSVA). GSVA, a non-parametric and non-supervised method, estimated a sample-wise enrichment score for each gene set on the RCT cohorts. Such enrichment scores, representing overall gene set activity, were then modeled to evaluate the treatment effect and the association with treatment response. […]

[3] = post-treatment, 12 weeks, one patient (ST-15), pre-treatment value 5

secukinumab
psoriasis plaque clearance (PASI 100, complete clinical remission) (PsO patient; one secukinumab-treated PsO patient): 100% | Body surface area (BSA) with psoriasis (%) (PsO patient; post-treatment, 12 weeks post-therapy, one patient (ST-15; AL and ANL samples), pre-treatment value 8): 0% | Deformity (PsO patient; post-treatment, 12 weeks, one patient (ST-15), pre-treatment value 0): 0 | Enthesitis (PsO patient; post-treatment, 12 weeks, one patient (ST-15), pre-treatment value 1): 0 | Dactylitis (PsO patient; post-treatment, 12 weeks, one patient (ST-15), pre-treatment value 4): 0 | PASI (PsO patient; [3]): 0 | Phys GA (global) (PsO patient; [3]): 1 | Swollen joint count (SJC) (PsO patient; post-treatment, 12 weeks, one patient (ST-15), pre-treatment value 11): 0 | Tender joint count (TJC) (PsO patient; post-treatment, 12 weeks, one patient (ST-15), pre-treatment value 12): 0 | expression of HIF1A, IL17RA, and IL17RC in resolved skin (post-treatment L) [1]: comparable to that of non-lesional skin | GSVA score of gene signature downregulated by HIF1α inhibitor, treatment group vs placebo [2]: significantly distinguished
